Assay results: ChEMBL document CHEMBL5465560, “Selectivity Literature for EUbOPEN Chemogenomic Library” (2024)

Assays:
[1] = target: Cyclin-dependent kinase 14 (Homo sapiens) (UniProt O94921); assay: Selectivity interaction (Kinase panel (KiNativ target engagement assay in Jurkat cells)) EUB0001635a CDK14; assay type: cell-based; conditions: at 1 µM
[2] = target: Aurora kinase A (Homo sapiens, UniProt O14965); assay: Selectivity interaction (Kinase panel (33PanQinase(R) Activity Assay)) EUB0000877a STK6
Chain of Aurora kinase A (O14965 whole entry): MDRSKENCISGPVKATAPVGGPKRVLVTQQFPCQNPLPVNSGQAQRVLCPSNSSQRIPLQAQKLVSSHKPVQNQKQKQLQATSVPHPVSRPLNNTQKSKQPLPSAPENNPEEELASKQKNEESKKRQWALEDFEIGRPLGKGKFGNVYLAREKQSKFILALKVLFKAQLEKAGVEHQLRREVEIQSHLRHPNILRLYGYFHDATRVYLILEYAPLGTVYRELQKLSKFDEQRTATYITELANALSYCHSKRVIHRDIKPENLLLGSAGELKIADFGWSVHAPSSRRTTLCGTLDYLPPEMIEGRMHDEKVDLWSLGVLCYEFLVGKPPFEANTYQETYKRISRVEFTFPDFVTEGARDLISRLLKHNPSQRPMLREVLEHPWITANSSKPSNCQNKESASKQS

[3] = target: Serine/threonine-protein kinase PLK3 (Homo sapiens, UniProt Q9H4B4); assay: Selectivity interaction (KinomeScan (DiscoverX)) EUB0000092b PLK3; conditions: at 10 µM
Chain of Serine/threonine-protein kinase PLK3 (Q9H4B4 whole entry, looked up): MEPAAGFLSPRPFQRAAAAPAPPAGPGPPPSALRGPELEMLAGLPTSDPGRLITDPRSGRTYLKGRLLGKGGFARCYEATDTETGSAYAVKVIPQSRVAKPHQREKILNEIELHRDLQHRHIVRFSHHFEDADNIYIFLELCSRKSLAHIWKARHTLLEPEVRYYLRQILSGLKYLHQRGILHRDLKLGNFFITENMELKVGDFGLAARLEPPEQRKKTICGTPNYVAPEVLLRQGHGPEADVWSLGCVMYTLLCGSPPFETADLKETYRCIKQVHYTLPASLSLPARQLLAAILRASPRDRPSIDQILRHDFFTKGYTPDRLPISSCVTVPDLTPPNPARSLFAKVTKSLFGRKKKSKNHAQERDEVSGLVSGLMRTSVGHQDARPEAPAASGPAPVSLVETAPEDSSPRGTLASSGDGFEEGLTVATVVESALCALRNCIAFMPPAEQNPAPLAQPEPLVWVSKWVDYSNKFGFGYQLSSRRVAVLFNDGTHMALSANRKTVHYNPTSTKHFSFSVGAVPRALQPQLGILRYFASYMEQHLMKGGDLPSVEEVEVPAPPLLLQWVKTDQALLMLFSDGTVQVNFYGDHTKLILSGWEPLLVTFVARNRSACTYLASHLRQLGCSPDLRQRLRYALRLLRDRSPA

[4] = target: T1, Serine/threonine-protein kinase D2 (Homo sapiens) (UniProt Q9BZL6); assay: Selectivity interaction (ActivX KiNativ screen (ex vivo kinase selectivity in human PBMCs)) EUB0001619a PRKD2; assay type: cell-based; conditions: PBMC, at 1 µM
T1 sequence (whole entry): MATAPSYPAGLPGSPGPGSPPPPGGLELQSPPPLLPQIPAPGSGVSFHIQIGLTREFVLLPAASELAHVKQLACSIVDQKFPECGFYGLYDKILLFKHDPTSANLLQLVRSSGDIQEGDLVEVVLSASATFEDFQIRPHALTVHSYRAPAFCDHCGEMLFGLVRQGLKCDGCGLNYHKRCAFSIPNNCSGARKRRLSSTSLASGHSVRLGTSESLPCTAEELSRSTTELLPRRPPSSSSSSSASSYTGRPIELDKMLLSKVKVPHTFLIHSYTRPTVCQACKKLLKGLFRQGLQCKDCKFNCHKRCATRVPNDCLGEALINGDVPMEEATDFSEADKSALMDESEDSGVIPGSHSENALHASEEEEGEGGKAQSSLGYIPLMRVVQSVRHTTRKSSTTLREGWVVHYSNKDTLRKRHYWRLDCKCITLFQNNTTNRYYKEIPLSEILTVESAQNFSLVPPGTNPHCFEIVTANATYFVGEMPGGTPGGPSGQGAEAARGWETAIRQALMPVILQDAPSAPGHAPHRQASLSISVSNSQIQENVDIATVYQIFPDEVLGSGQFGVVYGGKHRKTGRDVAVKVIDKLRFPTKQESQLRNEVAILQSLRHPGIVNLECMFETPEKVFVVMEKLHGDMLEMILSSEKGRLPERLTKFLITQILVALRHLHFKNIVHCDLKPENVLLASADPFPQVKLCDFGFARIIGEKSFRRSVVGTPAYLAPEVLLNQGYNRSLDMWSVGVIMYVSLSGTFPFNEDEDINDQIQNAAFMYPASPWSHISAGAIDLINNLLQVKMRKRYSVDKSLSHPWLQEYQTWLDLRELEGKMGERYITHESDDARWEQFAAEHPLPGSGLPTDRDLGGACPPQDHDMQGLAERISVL

[5] = target: T2, Serine/threonine-protein kinase TAO1 (Homo sapiens) (UniProt Q7L7X3); assay: Selectivity interaction (ActivX KiNativ screen (ex vivo kinase selectivity in human PBMCs)) EUB0001619a TAOK1; assay type: cell-based; conditions: PBMC, at 1 µM
T2 sequence (whole entry): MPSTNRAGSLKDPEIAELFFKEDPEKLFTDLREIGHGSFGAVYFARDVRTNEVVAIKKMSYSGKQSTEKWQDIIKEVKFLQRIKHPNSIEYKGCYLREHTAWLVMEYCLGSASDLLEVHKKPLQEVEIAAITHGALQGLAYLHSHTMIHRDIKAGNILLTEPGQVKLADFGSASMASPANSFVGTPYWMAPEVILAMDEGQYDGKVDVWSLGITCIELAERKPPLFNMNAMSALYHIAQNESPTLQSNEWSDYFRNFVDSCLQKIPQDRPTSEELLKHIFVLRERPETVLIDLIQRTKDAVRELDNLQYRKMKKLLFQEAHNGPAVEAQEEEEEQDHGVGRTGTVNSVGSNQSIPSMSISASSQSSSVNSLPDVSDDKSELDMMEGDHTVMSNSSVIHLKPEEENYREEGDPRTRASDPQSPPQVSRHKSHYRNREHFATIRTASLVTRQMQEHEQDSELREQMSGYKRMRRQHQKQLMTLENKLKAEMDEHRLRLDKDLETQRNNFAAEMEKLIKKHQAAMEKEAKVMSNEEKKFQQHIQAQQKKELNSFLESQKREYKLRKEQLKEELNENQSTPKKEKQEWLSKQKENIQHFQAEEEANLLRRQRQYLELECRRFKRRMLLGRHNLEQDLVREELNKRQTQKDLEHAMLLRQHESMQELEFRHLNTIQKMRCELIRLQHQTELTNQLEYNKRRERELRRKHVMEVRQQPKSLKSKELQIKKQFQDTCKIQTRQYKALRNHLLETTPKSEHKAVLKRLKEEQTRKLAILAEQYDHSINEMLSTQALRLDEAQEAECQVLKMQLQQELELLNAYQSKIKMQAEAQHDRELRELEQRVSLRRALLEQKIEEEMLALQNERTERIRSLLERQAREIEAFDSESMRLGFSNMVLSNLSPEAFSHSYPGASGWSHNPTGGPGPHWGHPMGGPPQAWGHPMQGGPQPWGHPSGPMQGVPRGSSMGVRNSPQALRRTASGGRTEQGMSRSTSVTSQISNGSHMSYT

[6] = target: T3, Dual specificity mitogen-activated protein kinase kinase 7 (Homo sapiens) (UniProt O14733); assay: Selectivity interaction (KinomeScan (DiscoverX)) EUB0000655a MAP2K7; conditions: at 10 µM
T3 sequence (whole entry): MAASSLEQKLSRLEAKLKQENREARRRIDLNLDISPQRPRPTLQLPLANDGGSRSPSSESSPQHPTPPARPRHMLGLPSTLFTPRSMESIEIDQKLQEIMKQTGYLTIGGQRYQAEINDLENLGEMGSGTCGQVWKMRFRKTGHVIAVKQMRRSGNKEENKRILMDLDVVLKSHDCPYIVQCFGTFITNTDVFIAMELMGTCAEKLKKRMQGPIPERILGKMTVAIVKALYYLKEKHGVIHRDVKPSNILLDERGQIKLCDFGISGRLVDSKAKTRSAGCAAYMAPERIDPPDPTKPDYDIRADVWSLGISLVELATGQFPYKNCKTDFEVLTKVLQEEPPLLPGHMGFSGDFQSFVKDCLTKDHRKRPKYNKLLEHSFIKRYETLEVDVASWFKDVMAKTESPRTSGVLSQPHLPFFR

Chain of Cyclin-dependent kinase 14 (Homo sapiens) (O94921 whole entry): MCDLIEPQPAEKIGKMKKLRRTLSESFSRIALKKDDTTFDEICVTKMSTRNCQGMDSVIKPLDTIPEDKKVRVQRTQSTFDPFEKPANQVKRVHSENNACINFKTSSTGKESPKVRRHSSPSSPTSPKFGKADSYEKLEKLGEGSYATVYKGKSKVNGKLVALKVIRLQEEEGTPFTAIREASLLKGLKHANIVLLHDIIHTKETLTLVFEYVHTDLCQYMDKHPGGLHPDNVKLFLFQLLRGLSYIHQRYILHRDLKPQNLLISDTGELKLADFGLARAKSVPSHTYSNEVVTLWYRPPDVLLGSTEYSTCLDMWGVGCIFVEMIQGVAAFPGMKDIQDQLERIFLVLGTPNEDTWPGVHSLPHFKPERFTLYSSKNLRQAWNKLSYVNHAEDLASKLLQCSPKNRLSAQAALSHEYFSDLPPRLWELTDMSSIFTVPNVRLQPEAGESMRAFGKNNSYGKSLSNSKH

`C=CC(=O)Nc1ccc(C(=O)Nc2[nH]nc3c2CN(C(=O)N[C@H](CN(C)C)c2ccccc2)C3(C)C)cc1` gave a % of engagement [1] of -33.3%.
Compound `CCC(=O)N1CC[C@H](Nc2ncnc3c2CN(c2cnc(OC)c(C(F)(F)F)c2)CC3)C1` [LENIOLISIB] has an IC50 [2] greater than 10 µM.
`CCC(=O)N1CCN(c2ccc(-n3c(=O)ccc4cnc5ccc(-c6cnc7ccccc7c6)cc5c43)cc2C(F)(F)F)CC1` showed a % of control [3] of 87%.
`N#Cc1cccc(-c2c[nH]c3ncnc(N4CCOCC4)c23)c1` was tested, and the % of inhibition [4] was 9% and the % of inhibition [5] was 6%.
For `CN(C)CCOc1ccc(-c2nc(-c3ccncc3)c(-c3ccc4c(c3)CC/C4=N\O)[nH]2)cc1`, the % of control [6] was 94%.
